From patent publication EP4703357A1, “TRIAZOLYL-CONTAINING COMPOUNDS” (Chia Tai Tianqing Pharmaceutical Group Co., Ltd., priority 2023, dated 2024)
Like-named read-outs stand apart in the source and are kept apart here.

Assays:
OCI-LY10 cells = assay: Inhibitory activity on OCI-LY10 cell proliferation (CCK-8); format: cell-based; conditions: Homo sapiens, 72 h incubation
Protocol: (§1) OCI-LY10 cells in a good growth state were collected into a centrifuge tube, adjusted to a cell density of 9 × 10^4 cells/mL, and seeded in a 96-well plate (100 µL/well). The cells were incubated overnight in a cell incubator. Compounds were added using a nanoliter pipettor such that the final concentrations of the compounds were 1000 nM-0.46 nM (the addition was performed in duplicate). Meanwhile, a control was set. After another 72 h of incubation in the cell incubator, the assay reagent CCK-8 (manufacturer: Dojindo Laboratories, Beijing; 10 µL/well) was added. After 2 h of incubation in the cell incubator, absorbance was measured at 450 nm on an Envision microplate reader. A four-parameter analysis was performed, a dose-response curve was fit, and IC50 was calculated.

[1] = In vitro liver microsomal stability, human; format: in vitro ADME; conditions: human liver microsome 0.5 mg/mL, NADPH, 37 °C, 1 h
Protocol: (§2) Liver microsome incubation samples were prepared by mixing a PBS buffer (pH = 7.4), a liver microsome solution (0.5 mg/mL), a test compound, and an NADPH + MgCl2 solution, and incubated at 37 °C and 300 rpm for 1 h. Zero-hour samples were prepared by mixing a PBS buffer (pH = 7.4), a liver microsome solution (0.5 mg/mL), and a test compound. An acetonitrile solution containing an internal standard was added to the samples, and supernatants were prepared by protein precipitation, diluted, and then assayed by LC/MS/MS. Table 17. In vitro metabolic stability of related compounds in liver microsomes of various species

[2] = In vitro liver microsomal stability, mouse; format: in vitro ADME; conditions: mouse liver microsome 0.5 mg/mL, NADPH, 37 °C, 1 h
Protocol: as §2

Jurkat cells = assay: Inhibitory activity on Jurkat cell proliferation (CCK-8); format: cell-based; conditions: Homo sapiens, 72 h incubation
Protocol: as §1, with “Jurkat cells” for “OCI-LY10 cells”, “of 5” for “of 9”

Mouse pharmacokinetics [3] = format: in vivo, ICR mice; conditions: ICR, plasma; for AUC(0-t): read-out: AUC (0-24)
Mouse pharmacokinetics [4] = format: in vivo; conditions: ICR, plasma, po, 3 mg/kg, Mice administered intragastrically 3 mpk; for AUC(0-t): read-out: AUC (0-24)
Protocol: ICR mice weighing 18-22 g were randomized into groups of 9 mice per group after 3-5 days of acclimatization and then administered intragastrically at a dose of 3 mg/kg.
Plasma samples to be tested were prepared by taking blood from the orbit at time points of 15 min, 30 min, 1 h, 2 h, 4 h, 6 h, 8 h, 10 h, and 24 h.
20 µL of each plasma sample to be tested and a standard curve sample were taken, and an acetonitrile solution containing an internal standard was added. A supernatant was obtained by protein precipitation, diluted, and then assayed by LC/MS/MS.
Pharmacokinetic parameters were fitted using a non-compartmental model.

[5] = 1 mg/kg, Mice administered by single intravenous injection 1 mpk
[6] = po, 3 mg/kg, Mice administered intragastrically 3 mpk

IC50 (OCI-LY10 cells) | Human liver microsome Residuals at 60 min (%) [1] | Mouse liver microsome Residuals at 60 min (%) [2] | IC50 (Jurkat cells) | also measured | Compound
≤ 40 nM | 92.23% | 87.82% | ≤ 20 nM | AUC(0-inf) (Mouse pharmacokinetics [3]; [5]): 879 ng·h/mL; clearance (Mouse pharmacokinetics [3]; [5]): 19 mL/min/kg; half-life (Mouse pharmacokinetics [3]; [5]): 1.26 h; AUC(0-t) (Mouse pharmacokinetics [3]; [5]): 874 ng·h/mL; AUC(0-inf) (Mouse pharmacokinetics [3]; [6]): 2730 ng·h/mL; Cmax (Mouse pharmacokinetics [4]): 483 ng/mL; Tmax (Mouse pharmacokinetics [4]): 3 h; half-life (Mouse pharmacokinetics [4]): 2.57 h; AUC(0-t) (Mouse pharmacokinetics [4]): 2730 ng·h/mL | NC(=O)/C(=C/n1cnc(-c2cc(C(F)(F)F)nc(C(F)(F)F)c2)n1)c1cnc(NCC(F)F)nc1 [2(2-A)]
≤ 40 nM | 95.65% | 94.26% | ≤ 20 nM | AUC(0-inf) (Mouse pharmacokinetics [3]; [5]): 1570 ng·h/mL; clearance (Mouse pharmacokinetics [3]; [5]): 10.6 mL/min/kg; half-life (Mouse pharmacokinetics [3]; [5]): 1.66 h; AUC(0-t) (Mouse pharmacokinetics [3]; [5]): 1540 ng·h/mL; AUC(0-inf) (Mouse pharmacokinetics [3]; [6]): 5300 ng·h/mL; Cmax (Mouse pharmacokinetics [4]): 681 ng/mL; Tmax (Mouse pharmacokinetics [4]): 3 h; half-life (Mouse pharmacokinetics [4]): 2.8 h; AUC(0-t) (Mouse pharmacokinetics [4]): 5280 ng·h/mL | CC(F)(F)CNc1ncc(/C(=C\n2cnc(-c3cc(C(F)(F)F)nc(C(F)(F)F)c3)n2)C(N)=O)cn1 [3(3-A)]
≤ 40 nM | 87.55% | 88.38% | ≤ 20 nM | AUC(0-inf) (Mouse pharmacokinetics [3]; [5]): 1630 ng·h/mL; clearance (Mouse pharmacokinetics [3]; [5]): 10.2 mL/min/kg; half-life (Mouse pharmacokinetics [3]; [5]): 1.34 h; AUC(0-t) (Mouse pharmacokinetics [3]; [5]): 1620 ng·h/mL; AUC(0-inf) (Mouse pharmacokinetics [3]; [6]): 4650 ng·h/mL; Cmax (Mouse pharmacokinetics [4]): 599 ng/mL; Tmax (Mouse pharmacokinetics [4]): 3 h; half-life (Mouse pharmacokinetics [4]): 3.48 h; AUC(0-t) (Mouse pharmacokinetics [4]): 4600 ng·h/mL | CC(F)(F)CNc1ncc(/C(=C\n2cnc(-c3cc(C4CC4)nc(C(F)(F)F)c3)n2)C(N)=O)cn1 [15(15-A)]
≤ 40 nM | 102.40% | 83.25% | ≤ 20 nM | AUC(0-inf) (Mouse pharmacokinetics [3]; [5]): 1040 ng·h/mL; clearance (Mouse pharmacokinetics [3]; [5]): 16 mL/min/kg; half-life (Mouse pharmacokinetics [3]; [5]): 1.41 h; AUC(0-t) (Mouse pharmacokinetics [3]; [5]): 1040 ng·h/mL; AUC(0-inf) (Mouse pharmacokinetics [3]; [6]): 3800 ng·h/mL; Cmax (Mouse pharmacokinetics [4]): 874 ng/mL; Tmax (Mouse pharmacokinetics [4]): 1 h; half-life (Mouse pharmacokinetics [4]): 2.55 h; AUC(0-t) (Mouse pharmacokinetics [4]): 3480 ng·h/mL | Cc1ccc(/C(=C\n2cnc(-c3cc(C4CC4)nc(C(F)(F)F)c3)n2)C(N)=O)cn1 [38(38-A)]
≤ 40 nM |  |  | ≤ 20 nM |  | NC(=O)/C(=C/n1cnc(-c2cc(C3CC3)nc(C(F)(F)F)c2)n1)c1ccc2cccnc2c1 [59(59-A)]
≤ 40 nM | 101.38% | 97.97% | ≤ 20 nM |  | NC(=O)C(=Cn1cnc(-c2cc(C(F)(F)F)nc(C(F)(F)F)c2)n1)c1cncnc1 [Compound 1]
≤ 40 nM | 100.33% | 93.27% | ≤ 20 nM |  | NC(=O)/C(=C/n1cnc(-c2cc(C(F)(F)F)nc(C(F)(F)F)c2)n1)c1cnc(NCC(F)(F)F)nc1 [Compound 4]
≤ 40 nM | 97.64% | 99.03% | ≤ 20 nM |  | C[C@@H](Nc1ncc(/C(=C\n2cnc(-c3cc(C(F)(F)F)nc(C(F)(F)F)c3)n2)C(N)=O)cn1)C(F)(F)F [Compound 5]
≤ 40 nM | 95.75% | 93.99% | ≤ 20 nM |  | N#Cc1cncc(/C(=C\n2cnc(-c3cc(C(F)(F)F)nc(C(F)(F)F)c3)n2)C(N)=O)c1 [Compound 10]
≤ 40 nM | 93.23% | 91.15% | ≤ 20 nM |  | NC(=O)/C(=C/n1cnc(-c2cc(C3CC3)nc(C(F)(F)F)c2)n1)c1cncnc1 [Compound 13]
≤ 40 nM | 80.48% | 83.14% | ≤ 20 nM |  | NC(=O)/C(=C/n1cnc(-c2cc(C3CC3)nc(C(F)(F)F)c2)n1)c1cnc(NCC(F)F)nc1 [Compound 14]
≤ 40 nM | 88.75% | 90.60% | ≤ 20 nM |  | NC(=O)/C(=C/n1cnc(-c2cc(C3CC3)nc(C(F)(F)F)c2)n1)c1cnc(NCC(F)(F)F)nc1 [Compound 16]
≤ 40 nM | 93.92% | 95.11% | ≤ 20 nM |  | C[C@@H](Nc1ncc(/C(=C\n2cnc(-c3cc(C4CC4)nc(C(F)(F)F)c3)n2)C(N)=O)cn1)C(F)(F)F [Compound 17]
≤ 40 nM | 96.64% | 90.27% | ≤ 20 nM |  | NC(=O)/C(=C/n1cnc(-c2cc(C3CC3)nc(C(F)(F)F)c2)n1)c1cnc2ccccc2c1 [Compound 26]
≤ 40 nM | 98.75% | 89.94% | ≤ 20 nM |  | N#Cc1cncc(/C(=C\n2cnc(-c3cc(C4CC4)nc(C(F)(F)F)c3)n2)C(N)=O)c1 [Compound 30]
≤ 40 nM | 100.32% | 95.08% | ≤ 20 nM |  | NC(=O)/C(=C/n1cnc(-c2cc(C3CC3)nc(C(F)(F)F)c2)n1)c1cccnc1F [Compound 32]
≤ 40 nM | 104.79% | 98.21% | ≤ 20 nM |  | NC(=O)/C(=C/n1cnc(-c2cc(C3CC3)nc(C(F)(F)F)c2)n1)c1cnc2cccnc2c1 [Compound 33]
≤ 40 nM |  |  | ≤ 20 nM |  | NC(=O)/C(=C/n1cnc(-c2cc(C3CC3)nc(C(F)(F)F)c2)n1)c1ccnc(F)c1 [Compound 36]
≤ 40 nM |  |  | ≤ 20 nM |  | NC(=O)/C(=C/n1cnc(-c2cc(C3CC3)nc(C(F)(F)F)c2)n1)c1cccc(F)n1 [Compound 37]
≤ 40 nM | 106.91% | 89.18% | ≤ 20 nM |  | NC(=O)/C(=C/n1cnc(-c2cc(C3CC3)nc(C(F)(F)F)c2)n1)c1ccc(F)nc1 [Compound 39]
≤ 40 nM |  |  | ≤ 20 nM |  | NC(=O)/C(=C/n1cnc(-c2cc(C3CC3)nc(C(F)(F)F)c2)n1)c1ccc(NCC(F)(F)F)nc1 [Compound 40]
≤ 40 nM |  |  | ≤ 20 nM |  | NC(=O)/C(=C/n1cnc(-c2cc(C3CC3)nc(C(F)(F)F)c2)n1)c1ccc(NCC(F)F)nc1 [Compound 41]
≤ 40 nM |  |  | ≤ 20 nM |  | NC(=O)/C(=C/n1cnc(-c2cc(C3CC3)nc(C(F)(F)F)c2)n1)c1ccncc1 [Compound 43]
≤ 40 nM |  |  | ≤ 20 nM |  | NC(=O)/C(=C/n1cnc(-c2cc(C(F)(F)F)nc(C(F)(F)F)c2)n1)c1ccc(NCC(F)(F)F)nc1 [Compound 46]
≤ 40 nM |  |  | ≤ 20 nM |  | NC(=O)/C(=C/n1cnc(-c2cc(C(F)(F)F)nc(C(F)(F)F)c2)n1)c1ccc(C(F)(F)F)nc1 [Compound 53]
≤ 40 nM |  |  | ≤ 20 nM |  | NC(=O)/C(=C/n1cnc(-c2cc(C(F)(F)F)nc(C(F)(F)F)c2)n1)c1ccc(NCC(F)F)nc1 [Compound 54]
≤ 40 nM |  |  | ≤ 20 nM |  | NC(=O)/C(=C/n1cnc(-c2cc(C3CC3)nc(C(F)(F)F)c2)n1)c1ccc2ncccc2c1 [Compound 57]
≤ 40 nM |  |  | ≤ 20 nM |  | NC(=O)/C(=C/n1cnc(-c2cc(C3CC3)nc(C(F)(F)F)c2)n1)c1ccc(C(F)(F)F)nc1 [Compound 60]
